Active and inactive are the calls of the source. No cut-off for these calls is given here.
The molecules below were run on Proteus mirabilis (assay: Antimicrobial activity against Proteus mirabilis assessed as percent susceptible isolates by CLSI method).
Type: functional

Q: With `CO[C@@]1(NC(=O)Cc2cccs2)C(=O)N2C(C(=O)O)=C(COC(N)=O)CS[C@@H]21` [CEFOXITIN] as the molecule, how does the Activity read?
A: 95%

Q: `CC(C)(O/N=C(\C(=O)N[C@@H]1C(=O)N2C(C(=O)[O-])=C(C[n+]3ccccc3)CS[C@H]12)c1csc(N)n1)C(=O)O` [CEFTAZIDIME] was tested. Which Activity did it give?
A: 89%

Q: With `CO/N=C(\C(=O)N[C@@H]1C(=O)N2C(C(=O)O)=C(CSc3nc(=O)c(O)nn3C)CS[C@H]12)c1csc(N)n1` [CEFTRIAXONE] as the molecule, how does the Activity read?
A: 77%

Q: How did the Activity turn out when `C[C@@H](O)[C@H]1C(=O)N2C(C(=O)O)=C(SCCNC=N)C[C@H]12` [IMIPENEM ANHYDROUS] was run?
A: 100%

Q: For `C[C@H]1COc2c(N3CCN(C)CC3)c(F)cc3c(=O)c(C(=O)O)cn1c23.C[C@H]1COc2c(N3CCN(C)CC3)c(F)cc3c(=O)c(C(=O)O)cn1c23.O` [LEVOFLOXACIN], which Activity is on record?
A: 84%

These molecules were tested on Citrobacter freundii (assay: Antimicrobial activity against Citrobacter freundii assessed as percent susceptible isolates by CLSI method).
Type: functional

Q: `CO[C@@]1(NC(=O)Cc2cccs2)C(=O)N2C(C(=O)O)=C(COC(N)=O)CS[C@@H]21` [CEFOXITIN] was tested. Which Activity did it give?
A: 16%

Q: `CC(C)(O/N=C(\C(=O)N[C@@H]1C(=O)N2C(C(=O)[O-])=C(C[n+]3ccccc3)CS[C@H]12)c1csc(N)n1)C(=O)O` [CEFTAZIDIME] was tested. Which Activity did it give?
A: 43%

Q: `CO/N=C(\C(=O)N[C@@H]1C(=O)N2C(C(=O)O)=C(CSc3nc(=O)c(O)nn3C)CS[C@H]12)c1csc(N)n1` [CEFTRIAXONE] was tested. Which Activity did it give?
A: 45%

Q: `C[C@@H](O)[C@H]1C(=O)N2C(C(=O)O)=C(SCCNC=N)C[C@H]12` [IMIPENEM ANHYDROUS] was tested. Which Activity did it give?
A: 100%

Q: Which Activity does the source give for `C[C@H]1COc2c(N3CCN(C)CC3)c(F)cc3c(=O)c(C(=O)O)cn1c23.C[C@H]1COc2c(N3CCN(C)CC3)c(F)cc3c(=O)c(C(=O)O)cn1c23.O` [LEVOFLOXACIN] here?
A: 77%

What follows are molecules tested on Pseudomonas aeruginosa (assay: Antimicrobial activity against Pseudomonas aeruginosa assessed as percent susceptible isolates by CLSI method).
Type: functional

Q: How did the Activity turn out when `CO[C@@]1(NC(=O)Cc2cccs2)C(=O)N2C(C(=O)O)=C(COC(N)=O)CS[C@@H]21` [CEFOXITIN] was run?
A: inactive

Q: With `CC(C)(O/N=C(\C(=O)N[C@@H]1C(=O)N2C(C(=O)[O-])=C(C[n+]3ccccc3)CS[C@H]12)c1csc(N)n1)C(=O)O` [CEFTAZIDIME] as the molecule, how does the Activity read?
A: 66%

Q: For `CO/N=C(\C(=O)N[C@@H]1C(=O)N2C(C(=O)O)=C(CSc3nc(=O)c(O)nn3C)CS[C@H]12)c1csc(N)n1` [CEFTRIAXONE], which Activity is on record?
A: 19%

Q: With `C[C@@H](O)[C@H]1C(=O)N2C(C(=O)O)=C(SCCNC=N)C[C@H]12` [IMIPENEM ANHYDROUS] as the molecule, how does the Activity read?
A: 71%

Q: With `C[C@H]1COc2c(N3CCN(C)CC3)c(F)cc3c(=O)c(C(=O)O)cn1c23.C[C@H]1COc2c(N3CCN(C)CC3)c(F)cc3c(=O)c(C(=O)O)cn1c23.O` [LEVOFLOXACIN] as the molecule, how does the Activity read?
A: 73%

These molecules were tested on Klebsiella oxytoca (assay: Antimicrobial activity against extended spectrum beta-lactamase-expressing Klebsiella oxytoca assessed as percent susceptible isolates by CLSI method).
Type: functional

Q: Which Activity does the source give for `CO[C@@]1(NC(=O)Cc2cccs2)C(=O)N2C(C(=O)O)=C(COC(N)=O)CS[C@@H]21` [CEFOXITIN] here?
A: 64%

Q: With `CC(C)(O/N=C(\C(=O)N[C@@H]1C(=O)N2C(C(=O)[O-])=C(C[n+]3ccccc3)CS[C@H]12)c1csc(N)n1)C(=O)O` [CEFTAZIDIME] as the molecule, how does the Activity read?
A: 27%

Q: With `CO/N=C(\C(=O)N[C@@H]1C(=O)N2C(C(=O)O)=C(CSc3nc(=O)c(O)nn3C)CS[C@H]12)c1csc(N)n1` [CEFTRIAXONE] as the molecule, how does the Activity read?
A: 9%

Q: With `C[C@@H](O)[C@H]1C(=O)N2C(C(=O)O)=C(SCCNC=N)C[C@H]12` [IMIPENEM ANHYDROUS] as the molecule, how does the Activity read?
A: 100%

Q: For `C[C@H]1COc2c(N3CCN(C)CC3)c(F)cc3c(=O)c(C(=O)O)cn1c23.C[C@H]1COc2c(N3CCN(C)CC3)c(F)cc3c(=O)c(C(=O)O)cn1c23.O` [LEVOFLOXACIN], which Activity is on record?
A: 41%

What follows are molecules tested on Klebsiella pneumoniae (assay: Antimicrobial activity against extended spectrum beta-lactamase-expressing Klebsiella pneumoniae assessed as percent susceptible isolates by CLSI method).
Type: functional

Q: How did the Activity turn out when `CO[C@@]1(NC(=O)Cc2cccs2)C(=O)N2C(C(=O)O)=C(COC(N)=O)CS[C@@H]21` [CEFOXITIN] was run?
A: 61%

Q: `CC(C)(O/N=C(\C(=O)N[C@@H]1C(=O)N2C(C(=O)[O-])=C(C[n+]3ccccc3)CS[C@H]12)c1csc(N)n1)C(=O)O` [CEFTAZIDIME] was tested. Which Activity did it give?
A: 20%

Q: For `CO/N=C(\C(=O)N[C@@H]1C(=O)N2C(C(=O)O)=C(CSc3nc(=O)c(O)nn3C)CS[C@H]12)c1csc(N)n1` [CEFTRIAXONE], which Activity is on record?
A: 10%

Q: For `C[C@@H](O)[C@H]1C(=O)N2C(C(=O)O)=C(SCCNC=N)C[C@H]12` [IMIPENEM ANHYDROUS], which Activity is on record?
A: 97%

Q: For `C[C@H]1COc2c(N3CCN(C)CC3)c(F)cc3c(=O)c(C(=O)O)cn1c23.C[C@H]1COc2c(N3CCN(C)CC3)c(F)cc3c(=O)c(C(=O)O)cn1c23.O` [LEVOFLOXACIN], which Activity is on record?
A: 43%

These molecules were tested on Escherichia coli (assay: Antimicrobial activity against extended spectrum beta-lactamase-deficient Escherichia coli assessed as percent susceptible isolates by CLSI method).
Type: functional

Q: `CO[C@@]1(NC(=O)Cc2cccs2)C(=O)N2C(C(=O)O)=C(COC(N)=O)CS[C@@H]21` [CEFOXITIN] was tested. Which Activity did it give?
A: 89%

Q: With `CC(C)(O/N=C(\C(=O)N[C@@H]1C(=O)N2C(C(=O)[O-])=C(C[n+]3ccccc3)CS[C@H]12)c1csc(N)n1)C(=O)O` [CEFTAZIDIME] as the molecule, how does the Activity read?
A: 95%

Q: Which Activity does the source give for `CO/N=C(\C(=O)N[C@@H]1C(=O)N2C(C(=O)O)=C(CSc3nc(=O)c(O)nn3C)CS[C@H]12)c1csc(N)n1` [CEFTRIAXONE] here?
A: 96%

Q: Which Activity does the source give for `C[C@@H](O)[C@H]1C(=O)N2C(C(=O)O)=C(SCCNC=N)C[C@H]12` [IMIPENEM ANHYDROUS] here?
A: 100%

Q: Which Activity does the source give for `C[C@H]1COc2c(N3CCN(C)CC3)c(F)cc3c(=O)c(C(=O)O)cn1c23.C[C@H]1COc2c(N3CCN(C)CC3)c(F)cc3c(=O)c(C(=O)O)cn1c23.O` [LEVOFLOXACIN] here?
A: 72%

Each molecule was assayed on Escherichia coli (assay: Antimicrobial activity against extended spectrum beta-lactamase-expressing Escherichia coli assessed as percent susceptible isolates by CLSI method).
Type: functional

Q: With `CO[C@@]1(NC(=O)Cc2cccs2)C(=O)N2C(C(=O)O)=C(COC(N)=O)CS[C@@H]21` [CEFOXITIN] as the molecule, how does the Activity read?
A: 66%

Q: `CC(C)(O/N=C(\C(=O)N[C@@H]1C(=O)N2C(C(=O)[O-])=C(C[n+]3ccccc3)CS[C@H]12)c1csc(N)n1)C(=O)O` [CEFTAZIDIME] was tested. Which Activity did it give?
A: 29%

Q: Which Activity does the source give for `CO/N=C(\C(=O)N[C@@H]1C(=O)N2C(C(=O)O)=C(CSc3nc(=O)c(O)nn3C)CS[C@H]12)c1csc(N)n1` [CEFTRIAXONE] here?
A: 4%

Q: Which Activity does the source give for `C[C@@H](O)[C@H]1C(=O)N2C(C(=O)O)=C(SCCNC=N)C[C@H]12` [IMIPENEM ANHYDROUS] here?
A: 98%

Q: For `C[C@H]1COc2c(N3CCN(C)CC3)c(F)cc3c(=O)c(C(=O)O)cn1c23.C[C@H]1COc2c(N3CCN(C)CC3)c(F)cc3c(=O)c(C(=O)O)cn1c23.O` [LEVOFLOXACIN], which Activity is on record?
A: 21%

The molecules below were run on Klebsiella pneumoniae (assay: Antimicrobial activity against extended spectrum beta-lactamase-deficient Klebsiella pneumoniae assessed as percent susceptible isolates by CLSI method).
Type: functional

Q: How did the Activity turn out when `CO[C@@]1(NC(=O)Cc2cccs2)C(=O)N2C(C(=O)O)=C(COC(N)=O)CS[C@@H]21` [CEFOXITIN] was run?
A: 87%

Q: For `CC(C)(O/N=C(\C(=O)N[C@@H]1C(=O)N2C(C(=O)[O-])=C(C[n+]3ccccc3)CS[C@H]12)c1csc(N)n1)C(=O)O` [CEFTAZIDIME], which Activity is on record?
A: 97%

Q: For `CO/N=C(\C(=O)N[C@@H]1C(=O)N2C(C(=O)O)=C(CSc3nc(=O)c(O)nn3C)CS[C@H]12)c1csc(N)n1` [CEFTRIAXONE], which Activity is on record?
A: 97%

Q: With `C[C@@H](O)[C@H]1C(=O)N2C(C(=O)O)=C(SCCNC=N)C[C@H]12` [IMIPENEM ANHYDROUS] as the molecule, how does the Activity read?
A: 100%

Q: Which Activity does the source give for `C[C@H]1COc2c(N3CCN(C)CC3)c(F)cc3c(=O)c(C(=O)O)cn1c23.C[C@H]1COc2c(N3CCN(C)CC3)c(F)cc3c(=O)c(C(=O)O)cn1c23.O` [LEVOFLOXACIN] here?
A: 94%

What follows are molecules tested on Klebsiella oxytoca (assay: Antimicrobial activity against extended spectrum beta-lactamase-deficient Klebsiella oxytoca assessed as percent susceptible isolates by CLSI method).
Type: functional

Q: With `CO[C@@]1(NC(=O)Cc2cccs2)C(=O)N2C(C(=O)O)=C(COC(N)=O)CS[C@@H]21` [CEFOXITIN] as the molecule, how does the Activity read?
A: 97%

Q: Which Activity does the source give for `CC(C)(O/N=C(\C(=O)N[C@@H]1C(=O)N2C(C(=O)[O-])=C(C[n+]3ccccc3)CS[C@H]12)c1csc(N)n1)C(=O)O` [CEFTAZIDIME] here?
A: 97%

Q: `CO/N=C(\C(=O)N[C@@H]1C(=O)N2C(C(=O)O)=C(CSc3nc(=O)c(O)nn3C)CS[C@H]12)c1csc(N)n1` [CEFTRIAXONE] was tested. Which Activity did it give?
A: 97%

Q: For `C[C@@H](O)[C@H]1C(=O)N2C(C(=O)O)=C(SCCNC=N)C[C@H]12` [IMIPENEM ANHYDROUS], which Activity is on record?
A: 100%

Q: How did the Activity turn out when `C[C@H]1COc2c(N3CCN(C)CC3)c(F)cc3c(=O)c(C(=O)O)cn1c23.C[C@H]1COc2c(N3CCN(C)CC3)c(F)cc3c(=O)c(C(=O)O)cn1c23.O` [LEVOFLOXACIN] was run?
A: 97%

What follows are molecules tested on Enterobacter cloacae (assay: Antimicrobial activity against Enterobacter cloacae assessed as percent susceptible isolates by CLSI method).
Type: functional

Q: How did the Activity turn out when `CO[C@@]1(NC(=O)Cc2cccs2)C(=O)N2C(C(=O)O)=C(COC(N)=O)CS[C@@H]21` [CEFOXITIN] was run?
A: 7%

Q: Which Activity does the source give for `CC(C)(O/N=C(\C(=O)N[C@@H]1C(=O)N2C(C(=O)[O-])=C(C[n+]3ccccc3)CS[C@H]12)c1csc(N)n1)C(=O)O` [CEFTAZIDIME] here?
A: 53%

Q: How did the Activity turn out when `CO/N=C(\C(=O)N[C@@H]1C(=O)N2C(C(=O)O)=C(CSc3nc(=O)c(O)nn3C)CS[C@H]12)c1csc(N)n1` [CEFTRIAXONE] was run?
A: 48%

Q: Which Activity does the source give for `C[C@@H](O)[C@H]1C(=O)N2C(C(=O)O)=C(SCCNC=N)C[C@H]12` [IMIPENEM ANHYDROUS] here?
A: 98%

Q: `C[C@H]1COc2c(N3CCN(C)CC3)c(F)cc3c(=O)c(C(=O)O)cn1c23.C[C@H]1COc2c(N3CCN(C)CC3)c(F)cc3c(=O)c(C(=O)O)cn1c23.O` [LEVOFLOXACIN] was tested. Which Activity did it give?
A: 79%

Each molecule was assayed on Klebsiella aerogenes (assay: Antimicrobial activity against Enterobacter aerogenes assessed as percent susceptible isolates by CLSI method).
Type: functional

Q: How did the Activity turn out when `CO[C@@]1(NC(=O)Cc2cccs2)C(=O)N2C(C(=O)O)=C(COC(N)=O)CS[C@@H]21` [CEFOXITIN] was run?
A: 22%

Q: How did the Activity turn out when `CC(C)(O/N=C(\C(=O)N[C@@H]1C(=O)N2C(C(=O)[O-])=C(C[n+]3ccccc3)CS[C@H]12)c1csc(N)n1)C(=O)O` [CEFTAZIDIME] was run?
A: 46%

Q: `CO/N=C(\C(=O)N[C@@H]1C(=O)N2C(C(=O)O)=C(CSc3nc(=O)c(O)nn3C)CS[C@H]12)c1csc(N)n1` [CEFTRIAXONE] was tested. Which Activity did it give?
A: 55%

Q: For `C[C@@H](O)[C@H]1C(=O)N2C(C(=O)O)=C(SCCNC=N)C[C@H]12` [IMIPENEM ANHYDROUS], which Activity is on record?
A: 97%

Q: For `C[C@H]1COc2c(N3CCN(C)CC3)c(F)cc3c(=O)c(C(=O)O)cn1c23.C[C@H]1COc2c(N3CCN(C)CC3)c(F)cc3c(=O)c(C(=O)O)cn1c23.O` [LEVOFLOXACIN], which Activity is on record?
A: 83%
